Marks after values point to notes of the source that are not given here.
Assay: Determination of bio-accumulation: urinary clearance pharmacokinetic study in rats
Type: in vivo, male Sprague Dawley rats
Conditions: oral gavage; for T½: elimination via urine, exponential least squares curve fitting of concentration in urine; for Compound-related Effects: clinical observation and gross necropsy 96 hours post-dose
[1] = 73 micro Moles per kg body weight
[2] = 73 micro Moles per kg body weight, recovered in urine up to 96 h
[3] = 73 micro Moles per kg, based on elimination of the major metabolite C3F7—O—CHFCOO−, no parent compound in urine

## N.O=C(O)C(F)(F)C(F)OC(F)(F)C(F)(F)C(F)(F)OC(F)(F)F (centres unmarked) [Compound 11, CF3—O—CF2—CF2—CF2—O—CHF—CF2—COONH4]
[1]
  T½: 12 h
[2]
  % Recovery (96 h): 84%

## N.O=C(O)C(F)(F)OC(F)(F)C(F)(F)C(F)(F)OC(F)(F)F [Compound 4, CF3—(OCF2)3—OCF2—COONH4]
[2]
  % Recovery (96 h): 50%

## N.O=C(O)C(F)(F)C(F)(F)C(F)(F)C(F)(F)C(F)(F)OC(F)C(F)(F)F (centres unmarked) [Compound 14, CF3—CFH—O—(CF2)5—COONH4]
[1]
  Compound-related Effects: Hepatomegaly
  T½: 24 h
[2]
  % Recovery (96 h): 32%

## N.O=C(O)C(F)(F)C(F)(F)OC(F)(F)C(F)(F)F [Compound 7, C2F5—O—CF2—CF2—COONH4]
[1]
  T½: 10 h
[2]
  % Recovery (96 h): 100%

## N.O=C(O)C(F)(F)OC(F)(F)OC(F)(F)OC(F)(F)F [Compound 3, CF3—OCF2—OCF2—OCF2—COONH4]
[1]
  T½: 12 h
[2]
  % Recovery (96 h): 100%

## N.O=C(O)C(F)(F)OC(F)(F)C(F)(OC(F)(F)C(F)(F)C(F)(F)F)C(F)(F)F (centres unmarked) [Compound C-3, C3F7—O—CF(CF3)—CF2—O—CF2—COONH4, reference compound]
[1]
  Compound-related Effects: Hepatomegaly
  T½: 95 h
[2]
  % Recovery (96 h): 5%

## N.O=C(O)C(F)(F)C(F)(F)OC(F)(F)F [Compound 6, CF3—O—CF2—CF2—COONH4]
[1]
  T½: 11 h
[2]
  % Recovery (96 h): 100%

## N.O=C(O)C(F)(F)C(F)OC(F)(F)C(F)(F)C(F)(F)F (centres unmarked) [Compound 13, C3F7—O—CFH—CF2COONH4]
[1]
  T½: 11 h
[2]
  % Recovery (96 h): 94%

## N.O=C(O)C(F)(F)OC(F)(F)C(F)(F)OC(F)(F)C(F)(F)F [Compound 10, C2F5—O—CF2—CF2—O—CF2—COONH4]
[1]
  T½: 10 h
[2]
  % Recovery (96 h): 99%

## N.O=C(O)C(F)(F)OC(F)(F)OC(F)(F)F [Compound 2, CF3—OCF2—O—CF2—COONH4]
[1]
  T½: 12 h
[2]
  % Recovery (96 h): 96%

## N.O=C(O)C(F)(F)C(F)(F)OC(F)(F)C(F)(F)C(F)(F)F [Compound 8, C3F7—O—CF2—CF2—COONH4]
[1]
  T½: 12 h
[2]
  % Recovery (96 h): 82%

## N.O=C(O)C(F)(F)C(F)(F)C(F)(F)OC(F)C(F)(F)F (centres unmarked) [Compound 15, CF3—CFH—O—(CF2)3—COONH4]
[1]
  T½: 8 h
[2]
  % Recovery (96 h): 95%

## N.O=C(O)C(F)OC(F)(F)C(F)(F)C(F)(F)OC(F)(F)F (centres unmarked) [Compound 12, CF3—O—CF2—CF2—CF2—O—CHF—COONH4]
[1]
  T½: 11 h
[2]
  % Recovery (96 h): 95%

## N.O=C(O)C(F)(F)C(F)(F)OC(F)(F)C(F)(F)C(F)(F)C(F)(F)F [Compound 9, C4F9—O—CF2—CF2—COONH4]
[1]
  Compound-related Effects: Hepatomegaly
  T½: 31 h
[2]
  % Recovery (96 h): 42%

## N.O=C(O)C(F)(F)OC(F)(F)C(F)(F)C(F)(F)F [Compound 5, C3F7—O—CF2—COONH4]
[1]
  T½: 11 h
[2]
  % Recovery (96 h): 97%

## N.O=C(O)C(F)(F)OC(F)(F)C(F)(F)C(F)(F)OC(F)(F)F [Compound 1, CF3—O—(CF2)3—O—CF2—COONH4]
[2]
  % Recovery (96 h): 73%

## N.O=C(O)COC(F)(F)C(F)OC(F)(F)C(F)(F)C(F)(F)F (centres unmarked) [Compound 16, C3F7—O—CFH—CF2—O—CH2—COONH4]
[3]
  % Recovery (96 h): 65* %
  T½ (h): 13* h

## N.O=C(O)C(F)(F)C(F)(F)C(F)(F)C(F)(F)C(F)(F)C(F)(F)C(F)(F)F [Compound C-1, C7F15COONH4, reference compound]
[1]
  Compound-related Effects: Hepatomegaly
  T½: ~550 h
[2]
  % Recovery (96 h): 6%

Reference: patent publication US7671112B2, “Method of making fluoropolymer dispersion” (priority 2005, dated 2010)
